Results on 7 compounds are retold here after patent publication US20220356147A1, “COMPOUNDS AND METHODS FOR POTENTIATING COLISTIN ACTIVITY” (University of Notre Dame du Lac, priority 2019, published 2022).

The subject of data set [1] is A. baumannii 4106 (AB4106). Kind of data set: Broth microdilution, colistin potentiation. In kind it is cell-based. The gist of the method: (§1)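 AB4106 (1.04×10^6 CFU/mL) and KPB9 (1.96×10^6 CFU/mL) cultured 4–6 h, diluted in CAMHB, pre-dosed with compound, then colistin serially 2-fold diluted; compound-free and compound-alone controls included. Incubated stationary at 37° C. MIC = lowest colistin concentration giving 90% growth inhibition versus untreated wells.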

Data set [2] relates to AB 4106. Kind of data set: Broth microdilution, standalone MIC of compound. The class given is cell-based, A. baumannii. As to conditions: read-out: MIC of compound alone, AB 4106. Summed up:
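Bacteria grown 4–6 h in CAMHB, subcultured to 1.04×10^6 CFU/mL, then exposed to twofold serial dilutions of compound in CAMHB and incubated stationary at 37 C. MIC taken as lowest concentration giving 90% growth inhibition versus untreated wells.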

Data set [3] concerns AB 3941. Put plainly: Colistin potentiation, colistin-resistant isolate panel. The class given is cell-based, A. baumannii. Particulars: compound at 5 μM.
Data set [4] concerns AB 3942. The description is as above. The class given is cell-based, A. baumannii. As to conditions: compound at 5 μM.
In data set [5] the test system is AB 4112. The data set is described as above. In kind it is cell-based, A. baumannii. As to conditions: compound at 5 μM.
The test system of data set [6] is AB 4119. The data set is described as above. The class given is cell-based, A. baumannii. As to conditions: compound at 5 μM.
Data set [7] deals with AB 17978 mcr-1. The description is as above. In kind it is cell-based, A. baumannii. As to conditions: compound at 5 μM.
Data set [8] has as its system A. baumannii, K. pneumoniae, and Escherichia coli. Kind of data set: Earlier finding: suppression of colistin resistance by IMD-0354. In kind it is cell-based. As to conditions: 5 μM (1.9 μg/mL) IMD-0354.
For data set [9], the system named is 4T1 cells. Kind of data set: Cell line toxicity (MTT). In kind it is cell-based. The method, then: Cell line Toxicity: 4T1 cells (ATCC Manassas, Va.) were plated at a density of 1×10^4 cells/well in 96-well plates in Roswell Park Memorial Institute Media 1640 (RPMI)
(Gibco, Gaithersburg, MD) supplemented with 10% Fetal Bovine Serum (Gibco), 2 mM GlutaMAX (Gibco) and 50 μM 2-mercaptoethanol (Sigma Aldrich, St. Louis, Mo.) and incubated at 37 C under a 5% CO2 atmosphere in the dark for 18 h. Cell cultures were treated with serial dilutions of compounds in the presence or absence of 1 μg/mL colistin (3 replicates per condition) and incubated for an additional 18 hours. The following control conditions were used: media only (blank), 1% Triton X100 (0% cell viability), 0.5% DMSO (100% cell viability). Each condition was then treated with 10% volume of a 5 mg/mL solution of 3-(4,5-dimethylthiazol-2-yl)-2,5-diphenyltetrazolium bromide (MTT) (Sigma Aldrich) in sterile filtered 1X phosphate buffered saline (PBS) and incubated for 2 h. at 37 C in 5% CO2, after which the media was aspirated and the resulting formazan crystals were resuspended in 100 μL acidified (4 mM HCl) isopropanol. The 96-well plate was then read at 540 nm on a FLUOstar Optima (BMG Labtech Cary, NC) microplate reader. Cell viability was calculated as a percentage using the two previously mentioned controls.

In data set [10] the test system is AB 4106. Kind of data set: Time-kill curves with colistin. In kind it is cell-based, A. baumannii. As to conditions: 5 μM compound + 0.5, 4 or 32 μg/mL colistin, FIG. 1. The method, then: (§2) Time—kill Curves: Strains were cultured overnight in CAMHB and subcultured to 1.04×10^6 CFU/mL for AB 4106 and 1.96×10^6 CFU/mL for KP B9 in fresh CAMHB. The subculture was then transferred to culture tubes in 3 mL aliquots, which were dosed with adjuvant, colistin, or adjuvant plus colistin. One aliquot was not dosed to serve as a control. All samples were then incubated at 37 C with shaking. At 2, 4, 6, 8, and 24-hour time points, 100 μL was taken from each sample and ten-fold diluted in CAMHB up to 7 times. 100 μL of diluted culture was plated on LB (Lennox) agar and incubated at 37 C overnight. The total number of bacterial colonies on each plate was determined using a SphereFlash colony counter (NEUTEC Group Inc.).

The subject of data set [11] is KP B9. Put plainly: Time-kill curves with colistin. The class given is cell-based, K. pneumoniae. Particulars: 5 μM compound + 0.5, 4 or 32 μg/mL colistin, FIG. 2. On the procedure:
as §2

For data set [12], the system named is K. pneumoniae B9 (KPB9). Put plainly: Broth microdilution, colistin potentiation. The class given is cell-based. As to conditions: for ability to break colistin resistance, KPB9: compound at 500 nM. The method, then:
Broth microdilution method for measurement of colistin potentiation: Bacteria were cultured for 4 to 6 hours in CAMHB and diluted to 1.04×10^6 CFU/mL for AB 4106 and 1.96×10^6 CFU/mL for KP B9 in fresh CAMHB. To aliquots (4 mL) was added compound from stock solutions in DMSO. One aliquot was not dosed to allow measurement of the colistin MIC in the absence of compound. A 1 mL aliquot of each sample was dosed with colistin, and from this 200 μL was dispensed into the first row of a 96-well microtiter plate in which all but the final row of subsequent wells was prefilled with 100 μL of the corresponding compound dosed bacterial suspension The final row was filled with media to act as a sterility control and blank. Row one wells were mixed 6-7 times, then, 100 μL was withdrawn and transferred to row two. Row two wells were mixed 6-7 times followed by a 100 μL transfer from row two to row three. This procedure was used to serially dilute the rest of the rows of the microtiter plate, excluding the last prefilled row, which was used to measure growth in the presence of compound alone. Plates were then sealed with GLAD
Press'n Seal and incubated under stationary conditions at 37° C. […] MIC values were determined as the minimum concentration required to achieve 90% growth inhibition compared to growth in untreated wells.

Data set [13] deals with AB4106 and KPB9. Kind of data set: Initial screen for colistin resistance suppression, statements in words for both strains. Particulars: compound at 5 μM. In kind it is cell-based, A. baumannii and K. pneumoniae. Summed up: as §1
[14] abbreviates: compound at 5 μM, colistin alone 2048 μg/mL.
The mark [15] stands for this setting: Acinetobacter baumannii, 16 h, standalone, no colistin.

Molecules are shown by their SMILES. Read-outs that look alike come from different tables or passages of the source.

In the case of `O=C(Nc1cc(C(F)(F)F)cc(C(F)(F)F)c1)c1cc(Cl)ccc1O` [IMD-0354, reference compound], the entries for the “Colistin MIC fold reduction, AB 4106” value in data set [1] (compound at 1 μM), in data set [1] (compound at 3 μM) and in data set [1] (setting [14]) were 256 fold, 512 fold and 1024 fold, respectively. The MIC in [2] (Acinetobacter baumannii, 16 h) is 50 µM. The “Colistin MIC fold reduction, AB 3941” value in [3] is given as “(512) fold”. Moreover, in data set [4], the “Colistin MIC fold reduction, AB 3942” value is on record as “(≥2048) fold”. For the same compound, the “Colistin MIC fold reduction, AB 4112” value in data set [5] is “(1024) fold”. Moreover, the “Colistin MIC fold reduction, AB 4119” value in [6] was “(256) fold”. The “Colistin MIC fold reduction, AB 17978 mcr-1” value in [7] is “(128) fold”. In addition, the “reduction of the MIC of colistin” value in data set [8] is at least 4096 fold.

Take `O=C(Nc1cc(Cl)cc(Cl)c1)c1cc(Cl)ccc1O` [Compound 22]: the “Colistin MIC fold reduction, AB 4106” value is reported as 512 fold in data set [1] (compound at 1 μM), 1024 fold in data set [1] (compound at 3 μM) and 1024 fold in [1] (setting [14]). Moreover, the MIC in [2] (setting [15]) is over 200 µM. For the same compound, the “no measurable toxicity up to” value in data set [9] (mouse, 18 h) was over 200 µM. The “Time-kill: potentiation of colistin activity” value in data set [10] and in data set [11] was “significant potentiation of colistin activity” in each case.

For the compound `O=C(Nc1cc(F)cc(F)c1)c1cc(Cl)ccc1O` [Compound 21], the “Colistin MIC fold reduction, AB 4106” value in [1] (compound at 1 μM) came out at 64 fold; in [1] (compound at 3 μM), 512 fold; in [1] (setting [14]) it was 1024 fold. In data set [2] (setting [15]), the MIC was over 200 µM. Also, in data set [9] (mouse, 18 h), the “CT50 (cytotoxicity)” value was found to be 210 µM. In addition, the “toxicity compared to IMD-0354” value in data set [9] (mouse, 18 h) was “comparable toxicity to IMD-0354”.

On to `O=C(Nc1ccc(C(F)(F)F)c(F)c1)c1cc(Cl)ccc1O` [Compound 29, 5-chloro-N-(3-fluoro-4-(trifluoromethyl)phenyl)-2-hydroxybenzamide], for which the “Colistin MIC fold reduction, AB 4106” value amounted to 512 fold in data set [1] (compound at 1 μM), 1024 fold in data set [1] (compound at 3 μM) and 2048 fold in data set [1] (setting [14]). The “colistin MIC relative to breakpoint levels, KPB9” value in data set [12] (compound at 250 nM, breakpoint 2 μg/mL) is listed as “reduced the colistin MIC below breakpoint levels”. Also, in data set [12], the “ability to break colistin resistance, KPB9” value is recorded as “retained the ability to break colistin resistance”. Moreover, the minimum inhibitory concentration (MIC) in data set [2] (setting [15]) was over 200 µM. In addition, the “Colistin MIC fold reduction, AB 3941” value in data set [3] was “(1024) fold”. Further, the “Colistin MIC fold reduction, AB 3942” value in data set [4] is on record as “(≥4096) fold”. The “Colistin MIC fold reduction, AB 4112” value in data set [5] is recorded as “(2048) fold”. The “Colistin MIC fold reduction, AB 4119” value in data set [6] was “(512) fold”. Further, the “Colistin MIC fold reduction, AB 17978 mcr-1” value in data set [7] was “(512) fold”. The “Colistin potentiation activity in words, compared to IMD-0354” value in [13] was “activity equivalent to IMD-0354”.

In the case of `O=C(Nc1cc(C(F)(F)F)cc(C(F)(F)F)c1Cl)c1cc(Cl)ccc1O` [Compound 25], the entries for the “Colistin MIC fold reduction, AB 4106” value in data set [1] (compound at 1 μM), in data set [1] (compound at 3 μM) and in data set [1] (setting [14]) were 512 fold, 1024 fold and 2048 fold, respectively. Also, the “Colistin MIC against AB 4106” value in data set [1] (in presence of compound at 1 μM) is 4 mg/L; in data set [1] (in presence of compound at 3 μM), 2 mg/L; in [1] (in presence of compound at 5 μM), 1 mg/L. Also, in data set [2] (standalone, no colistin), the MIC stood at 50 µM. The “Colistin MIC against AB 3941” value in data set [3] came out at 1 mg/L. For the same compound, the “Colistin MIC against AB 3942” value in [4] stood at 1 mg/L. Further, the “Colistin MIC against AB 4112” value in [5] turned out to be 1 mg/L. Besides, the “Colistin MIC against AB 4119” value in data set [6] was determined as 1 mg/L. In [7], the “Colistin MIC against AB 17978 mcr-1” value is 0.5 mg/L. Besides, the “toxicity compared to IMD-0354” value in data set [9] (4T1 cells, MTT) was “ca. two-fold more toxic than IMD-0354”. For the same compound, the “CT50 (cytotoxicity)” value in data set [9] (4T1 cells, MTT, 18 hours) came out at 110 µM.

Take `O=C(Nc1ccc(C(F)(F)F)cc1)c1cc(Cl)ccc1O` [Compound 26]: the results for the “Colistin MIC fold reduction, AB 4106” value in data set [1] (compound at 1 μM), in [1] (compound at 3 μM) and in data set [1] (setting [14]) were 128 fold, 1024 fold and 2048 fold, respectively. For the same compound, the MIC in [2] (setting [15]) is over 200 µM. Also, in data set [9] (mouse, 18 h), the “no measurable toxicity up to” value is over 200 µM. The “Colistin potentiation activity in words, compared to IMD-0354” value in data set [13] is listed as “activity equivalent to IMD-0354”.

With `O=C(Nc1cc(Br)cc(Br)c1)c1cc(Cl)ccc1O` [Compound 23], the “Colistin MIC fold reduction, AB 4106” value came out at 256 fold in data set [1] (compound at 1 μM), 1024 fold in [1] (compound at 3 μM) and 1024 fold in data set [1] (setting [14]). The “ability to break colistin resistance, KPB9” value in data set [12] was “retained the ability to break colistin resistance”. Also, the minimum inhibitory concentration (MIC) in [2] (setting [15]) is over 200 µM. The “Colistin MIC fold reduction, AB 3941” value in data set [3] is on record as “(512) fold”. In data set [4], the “Colistin MIC fold reduction, AB 3942” value is listed as “(≥2048) fold”. The “Colistin MIC fold reduction, AB 4112” value in data set [5] is reported as “(1024) fold”. In data set [6], the “Colistin MIC fold reduction, AB 4119” value is “(1024) fold”. Further, the “Colistin MIC fold reduction, AB 17978 mcr-1” value in [7] is recorded as “(128) fold”. The “no measurable toxicity up to” value in data set [9] (mouse, 18 h) is over 200 µM.
